Read-outs that look alike come from different tables or passages of the source.
Test system: HL60 cell line
Assay: Combination study, modulatory effect: IC50 of chemotherapy drug without and with cannabinoid-pair (72 h)
Format: cell-based
Conditions: Homo sapiens, HL-60, 72 h, HL60, 72 h, read-out: IC50 for percentage cell viability
Experimental: FIG. 2. Sensitising chemotherapy action with low doses of cannabinoids. […] The effect of a low dose of CBD/THC or CBD/CBG on the activity of CYT and VIN was also assessed. IC50 values for percentage cell viability were determined by emax models.
Cytarabine (CYT), (Sigma) and vincristine (VIN), (Sigma) were reconstituted in PBS at a stock concentration of 10 mM, and kept at −20° C. for no more than four weeks.
The ability of cannabinoids to modify the efficacy CYT and VIN was studied by assessing and comparing the IC50 of the anti-leukaemia drugs in the absence and presence of the cannabinoids.
The cannabinoids tested were CBD+CBG and CBD+THC, and these were used at a single total sub-optimal concentration of 1 μM in CEM and 5 μM HL60.
Drugs were added (CYT and VIN over a range of concentrations) and cell number determined after 72 h.
The ability of a sub-effective concentration of cannabinoid to alter the efficacy of CYT or VIN was determined by comparing the IC50s of the chemotherapy agents in the absence or presence of the cannabinoid-pair.

## Nc1ccn([C@@H]2O[C@H](CO)[C@@H](O)[C@@H]2O)c(=O)n1 [cytarabine, Cytarabine]
CBD+CBG added (sub-optimal total 5 μM in HL60)
  IC50: 0.15 µM
CBD+THC added (sub-optimal total 5 μM in HL60)
  IC50: 0.008 µM
Chemotherapy drug alone
  IC50: 0.1 µM
